Columns and labels:
Interleukin-23 receptor [1] = target: T1, Interleukin-23 receptor (Homo sapiens, UniProt Q5VWK5); test: Inhibition of interleukin-23 binding to human interleukin-23 receptor incubated for 2 hrs by competitive binding ELISA
T1 sequence (Q5VWK5 whole entry): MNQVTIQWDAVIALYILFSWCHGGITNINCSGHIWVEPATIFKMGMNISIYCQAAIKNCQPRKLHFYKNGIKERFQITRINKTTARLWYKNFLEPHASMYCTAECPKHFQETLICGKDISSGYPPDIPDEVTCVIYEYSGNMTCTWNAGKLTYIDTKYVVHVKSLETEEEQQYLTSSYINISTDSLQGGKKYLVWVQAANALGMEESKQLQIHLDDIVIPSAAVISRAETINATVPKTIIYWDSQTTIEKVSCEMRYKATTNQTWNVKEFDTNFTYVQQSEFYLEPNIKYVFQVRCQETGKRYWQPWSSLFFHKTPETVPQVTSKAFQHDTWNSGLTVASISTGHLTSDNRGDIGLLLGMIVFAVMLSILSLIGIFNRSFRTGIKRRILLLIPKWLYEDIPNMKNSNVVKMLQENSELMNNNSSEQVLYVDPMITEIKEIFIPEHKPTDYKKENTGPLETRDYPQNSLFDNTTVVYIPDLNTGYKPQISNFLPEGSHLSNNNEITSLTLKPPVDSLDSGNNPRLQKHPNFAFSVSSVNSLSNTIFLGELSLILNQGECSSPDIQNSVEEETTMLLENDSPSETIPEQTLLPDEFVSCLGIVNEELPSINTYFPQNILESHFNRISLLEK

[2] = Inhibition of interleukin-23 binding to rat interleukin-23 receptor incubated for 2 hrs by competitive binding ELISA
Interleukin-23 receptor [3] = target: T1, Interleukin-23 receptor; test: Inhibition of interleukin-23 receptor in human DB cells assessed as reduction in IL-23-stimulated STAT3 phosphorylation incubated for 30 mins by HTRF assay; format: cell-based
[4] = Half life in simulated intestinal fluid at 20 uM by LC-MS/MS analysis; format: ADME

Row | SMILES | IC50 (Interleukin-23 receptor [1]) | IC50 [2] | IC50 (Interleukin-23 receptor [3]) | half-life at 20 µM [4]
1 | CC(=O)N[C@H](C(=O)N[C@@H](CCC(N)=O)C(=O)N[C@H](C(=O)N[C@@H](Cc1c[nH]c2ccccc12)C(=O)N[C@@H](CCC(N)=O)C(=O)N[C@H](C(=O)N[C@@H](Cc1ccc(O)cc1)C(=O)N[C@@H](Cc1ccc2ccccc2c1)C(=O)N[C@@](C)(CCCCN)C(=O)N[C@@H](CCC(=O)O)C(=O)N[C@@H](CC(N)=O)C(=O)NCC(N)=O)C(C)(C)S)[C@@H](C)O)C(C)(C)S | 25 to 100 nM | 100 to 1000 nM | < 10 nM | 3 to 6 h
2 | COc1ccc(C[C@H](NC(=O)[C@@H]2CSCC[C@H](NC(C)=O)C(=O)N[C@@H](CCC(N)=O)C(=O)N[C@@H]([C@@H](C)O)C(=O)N[C@@H](Cc3c[nH]c4ccccc34)C(=O)N[C@@H](CCC(N)=O)C(=O)N2)C(=O)N[C@@H](Cc2ccc3ccccc3c2)C(=O)NC(C)(C)C(=O)N[C@@H](CCCCNC(C)=O)C(=O)N[C@@H](CC(N)=O)C(=O)NCC(N)=O)cc1 | 10 to 25 nM | 25 to 100 nM | < 10 nM | > 6 h
3 | COc1ccc(C[C@H](NC(=O)[C@@H](NC(=O)[C@H](CCC(N)=O)NC(=O)[C@H](Cc2c[nH]c3ccccc23)NC(=O)[C@@H](NC(=O)[C@H](CCC(N)=O)NC(=O)[C@@H](NC(C)=O)C(C)(C)S)[C@@H](C)O)C(C)(C)S)C(=O)N[C@@H](Cc2cccc3ccccc23)C(=O)N[C@@](C)(CCCCN)C(=O)N[C@@H](CCCCNC(C)=O)C(=O)N[C@@H](CC(N)=O)C(=O)NCC(N)=O)cc1 | 25 to 100 nM | 100 to 1000 nM | 25 to 100 nM | > 6 h
4 | CC(=O)N[C@H](C(=O)N[C@@H](CN)C(=O)N[C@H](C(=O)N[C@@H](Cc1c[nH]c2ccccc12)C(=O)N[C@@H](CCC(N)=O)C(=O)N[C@H](C(=O)N[C@@H](Cc1ccc(OCCN)cc1)C(=O)N[C@@H](Cc1ccc2ccccc2c1)C(=O)N[C@@](C)(CCCCN)C(=O)N[C@@H](CCC(=O)O)C(=O)N[C@@H](CC(N)=O)C(=O)NCC(N)=O)C(C)(C)S)[C@@H](C)O)C(C)(C)S | < 10 nM | 25 to 100 nM | < 10 nM | 
5 | COc1ccc(C[C@H](NC(=O)[C@@H](NC(=O)[C@H](CCC(N)=O)NC(=O)[C@H](Cc2c[nH]c3ccccc23)NC(=O)[C@@H](NC(=O)[C@H](CCC(N)=O)NC(=O)[C@@H](NC(C)=O)C(C)(C)S)[C@@H](C)O)C(C)(C)S)C(=O)N[C@@H](Cc2c[nH]c3ccccc23)C(=O)N[C@@](C)(CCCCN)C(=O)N[C@@H](CCCCNC(C)=O)C(=O)N[C@@H](CC(N)=O)C(=O)NCC(N)=O)cc1 | 25 to 100 nM | 25 to 100 nM | 10 to 25 nM | > 6 h
6 | CC(=O)N[C@@H](CS)C(=O)N[C@@H](C)C(=O)N[C@@H](CC(=O)O)C(=O)N[C@@H](Cc1c[nH]c2ccccc12)C(=O)N[C@H](C(=O)N[C@H](C(=O)N[C@@H](Cc1ccc(O)cc1)C(=O)N[C@@H](Cc1c[nH]c2ccccc12)C(=O)N[C@@H](Cc1cnc[nH]1)C(=O)N[C@H](C(=O)N[C@@H](Cc1ccccc1)C(=O)NCC(=O)NCCOCC(=O)N[C@H](CCCCN)C(N)=O)[C@@H](C)O)C(C)(C)S)C(C)C | > 30000 nM | 1000 to 10000 nM | 100 to 1000 nM | 
7 | CC(=O)NCCCC[C@H](NC(=O)[C@](C)(CCCCN)NC(=O)[C@H](Cc1ccc2ccccc2c1)NC(=O)[C@H](Cc1ccc(OCCN)cc1)NC(=O)[C@@H](NC(=O)[C@H](CCC(N)=O)NC(=O)[C@H](Cc1c[nH]c2ccccc12)NC(=O)[C@@H](NC(=O)[C@H](CCC(N)=O)NC(=O)[C@@H](NC(C)=O)C(C)(C)S)[C@@H](C)O)C(C)(C)S)C(=O)N[C@@H](CC(N)=O)C(=O)NCC(N)=O | < 10 nM | 25 to 100 nM | < 10 nM | 
8 | COc1ccc(C[C@H](NC(=O)[C@@H](NC(=O)[C@H](CCC(N)=O)NC(=O)[C@H](Cc2c[nH]c3ccccc23)NC(=O)[C@@H](NC(=O)[C@H](CCC(N)=O)NC(=O)[C@@H](NCN2C(=O)COCC2=O)C(C)(C)S)[C@@H](C)O)C(C)(C)S)C(=O)N[C@@H](Cc2ccc3ccccc3c2)C(=O)N[C@@](C)(CCCCN)C(=O)N[C@@H](CCCCNC(C)=O)C(=O)N[C@@H](CC(N)=O)C(=O)NCC(N)=O)cc1 | 25 to 100 nM | 25 to 100 nM | 10 to 25 nM | 
9 | CC(=O)NCCCC[C@](C)(NC(=O)[C@H](Cc1ccc2ccccc2c1)NC(=O)[C@H](Cc1ccc(OCCNC(C)=O)cc1)NC(=O)[C@@H]1CSCC[C@H](NC(C)=O)C(=O)N[C@@H](CCC(N)=O)C(=O)N[C@@H]([C@@H](C)O)C(=O)N[C@@H](Cc2c[nH]c3ccccc23)C(=O)N[C@@H](CCC(N)=O)C(=O)N1)C(=O)N[C@@H](CCC(=O)O)C(=O)N[C@@H](CC(N)=O)C(=O)N[C@@H](CC(N)=O)C(N)=O | < 10 nM | < 10 nM | < 10 nM | 
10 | COc1ccc(C[C@H](NC(=O)[C@@H](NC(=O)[C@H](CCC(N)=O)NC(=O)[C@H](Cc2c[nH]c3ccccc23)NC(=O)[C@@H](NC(=O)[C@H](CCC(N)=O)NC(=O)[C@@H](NC(=O)CC(C)C)C(C)(C)S)[C@@H](C)O)C(C)(C)S)C(=O)N[C@@H](Cc2ccc3ccccc3c2)C(=O)N[C@@](C)(CCCCN)C(=O)N[C@@H](CCCCNC(C)=O)C(=O)N[C@@H](CC(N)=O)C(=O)NCC(N)=O)cc1 | 25 to 100 nM | 25 to 100 nM | 10 to 25 nM | 
11 | CC(=O)NCCCC[C@H](NC(=O)[C@](C)(CCCN)NC(=O)[C@H](Cc1ccc2ccccc2c1)NC(=O)[C@H](Cc1ccc2ccccc2c1)NC(=O)[C@@H]1CSCC[C@H](NC(C)=O)C(=O)N[C@@H](CCC(N)=O)C(=O)N[C@@H]([C@@H](C)O)C(=O)N[C@@H](Cc2c[nH]c3ccccc23)C(=O)N[C@@H](CCC(N)=O)C(=O)N1)C(=O)N[C@@H](CC(N)=O)C(=O)NCC(N)=O | 25 to 100 nM | 100 to 1000 nM | < 10 nM | 2 to 3 h
12 | COc1ccc(C[C@H](NC(=O)[C@@H]2CSCC[C@H](NC(C)=O)C(=O)N[C@@H](CCC(N)=O)C(=O)N[C@@H]([C@@H](C)O)C(=O)N[C@@H](Cc3c[nH]c4ccccc34)C(=O)N[C@@H](CCC(N)=O)C(=O)N2)C(=O)N[C@@H](Cc2ccc3ccccc3c2)C(=O)N[C@H](CC(N)=O)C(=O)N[C@@H](CCCCNC(C)=O)C(=O)N[C@@H](CC(N)=O)C(=O)NCC(N)=O)cc1 | 25 to 100 nM | 100 to 1000 nM | 25 to 100 nM | > 6 h
13 | CC(=O)N[C@H](C(=O)N[C@@H](CCC(N)=O)C(=O)N[C@H](C(=O)N[C@@H](Cc1c[nH]c2ccccc12)C(=O)N[C@@H](CCC(N)=O)C(=O)N[C@H](C(=O)N[C@@H](Cc1ccc(O)cc1)C(=O)N[C@@H](Cc1ccc2ccccc2c1)C(=O)N[C@@](C)(CCCN)C(=O)N[C@@H](CCC(=O)O)C(=O)N[C@@H](CC(N)=O)C(=O)NCC(N)=O)C(C)(C)S)[C@@H](C)O)C(C)(C)S | 25 to 100 nM | 100 to 1000 nM | 10 to 25 nM | 3 to 6 h
14 | CC(=O)N[C@H](C(=O)N[C@@H](CCCNC(=N)N)C(=O)N[C@H](C(=O)N[C@@H](Cc1c[nH]c2ccccc12)C(=O)N[C@@H](CCC(N)=O)C(=O)N[C@H](C(=O)N[C@@H](Cc1ccc(O)cc1)C(=O)N[C@@H](Cc1c[nH]c2ccccc12)C(=O)N[C@@H](CCCNC(=N)N)C(=O)N[C@@H](CCCCN)C(=O)N[C@@H](Cc1ccccc1)C(=O)NCC(=O)NCCOCC(=O)N[C@H](CCCCN)C(N)=O)C(C)(C)S)[C@@H](C)O)C(C)(C)S | 100 to 1000 nM | 100 to 1000 nM | 25 to 100 nM | 
15 | COc1ccc(C[C@H](NC(=O)[C@@H](NC(=O)[C@H](CCC(N)=O)NC(=O)[C@H](Cc2c[nH]c3ccccc23)NC(=O)[C@@H](NC(=O)[C@H](CCC(N)=O)NC(=O)[C@@H](NC(=O)CCCC(=O)O)C(C)(C)S)[C@@H](C)O)C(C)(C)S)C(=O)N[C@@H](Cc2ccc3ccccc3c2)C(=O)N[C@@](C)(CCCCN)C(=O)N[C@@H](CCCCNC(C)=O)C(=O)N[C@@H](CC(N)=O)C(=O)NCC(N)=O)cc1 | 25 to 100 nM | 25 to 100 nM | 10 to 25 nM | 
16 | CC(=O)N[C@H](C(=O)N[C@@H](C)C(=O)N[C@@H](CC(=O)O)C(=O)N[C@@H](Cc1c[nH]c2ccccc12)C(=O)N[C@H](C(=O)N[C@@H](CS)C(=O)N[C@@H](Cc1ccc(O)cc1)C(=O)N[C@@H](Cc1c[nH]c2ccccc12)C(=O)N[C@@H](Cc1cnc[nH]1)C(=O)N[C@H](C(=O)N[C@@H](Cc1ccccc1)C(=O)NCC(=O)NCCOCC(=O)N[C@H](CCCCN)C(N)=O)[C@@H](C)O)C(C)C)C(C)(C)S | 100 to 1000 nM | 1000 to 10000 nM | 100 to 1000 nM | 
17 | COc1ccc(C[C@H](NC(=O)[C@@H](NC(=O)[C@H](CCC(N)=O)NC(=O)[C@H](Cc2c[nH]c3ccccc23)NC(=O)[C@@H](NC(=O)[C@H](CCC(N)=O)NC(=O)[C@@H](NC(=O)Cc2ccc(F)cc2)C(C)(C)S)[C@@H](C)O)C(C)(C)S)C(=O)N[C@@H](Cc2ccc3ccccc3c2)C(=O)N[C@@](C)(CCCCN)C(=O)N[C@@H](CCCCNC(C)=O)C(=O)N[C@@H](CC(N)=O)C(=O)NCC(N)=O)cc1 | 25 to 100 nM | 100 to 1000 nM | < 10 nM | 
18 | CC(=O)N[C@@H](CS)C(=O)N[C@@H](CCC(N)=O)C(=O)N[C@H](C(=O)N[C@@H](Cc1c[nH]c2ccccc12)C(=O)N[C@@H](CCC(N)=O)C(=O)N[C@H](C(=O)N[C@@H](Cc1ccc(O)cc1)C(=O)N[C@@H](Cc1c[nH]c2ccccc12)C(=O)N[C@@](C)(CC(C)C)C(=O)N[C@@H](CCC(=O)O)C(=O)N[C@@H](CC(N)=O)C(=O)NCC(N)=O)C(C)(C)S)[C@@H](C)O | 100 to 1000 nM | 100 to 1000 nM |  | < 1 h

From ChEMBL document CHEMBL4417631, “Oral peptide inhibitors of interleukin-23 receptor and their use to treat inflammatory bowel diseases” (2017)
